Measurements reported in patent US20240124460A1, “METHODS AND COMPOSITIONS FOR TARGETED PROTEIN DEGRADATION” (Ranok Therapeutics (Hangzhou) Co. Ltd., priority 2020, published 2024).

Experiments:
ERBB2 = ERBB2 (HER2) flow cytometry protein degradation assay in BT-474 cells; assay type: cell-based, human; conditions: DC50, BT-474 cells, 24 hr
In short: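 BT-474 cells trypsinised after compound treatment and stained with PE-conjugated anti-ERBB2 antibody, 30 min at 25° C in the dark, then fixed in 1% paraformaldehyde for flow cytometry. % inhibition = 100−(D−B)/(S−B)*100, using treated, untreated-stained and unstained cell fluorescence.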

[1] = system: U-87 MG human glioblastoma; experiment: U87 MG CCK-8 proliferation assay; assay type: cell-based; conditions: Homo sapiens, U-87 MG, 72 h, U-87 MG cells, read-out: U87MG CCK-8
In short: (§1)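 Cells cultured per ATCC recommendations and treated with 3-fold serial dilutions of compound from 20 μM to 1.02 nM. Viability by CCK-8 absorbance; % inhibition computed relative to DMSO-treated cells, with cell-free medium plus DMSO as blank.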

HSP90α protein = target: T1, HSP90α protein (Homo sapiens, UniProt P07900); experiment: HSP90α-binding FP (FITC) assay; conditions: FP competition with FITC-geldanamycin
T1 construct: purchased BPS Bioscience #50298
Protocol: Binding of test compounds to HSP90α protein was measured by fluorescent polarization (FP) using the HSP90α (N-terminal) Assay Kit (BPS Bioscience, #50298), following the manufacturer's instructions, except as noted. Fluorescently labeled HSP90-binding compounds, either the provided FITC-geldanamycin (5 nM final concentration) or RNK04010, a triazolone-based HSP90 binding small molecule labeled with BODIPY through a piperazine-phenyl linker (5 nM final concentration) were employed. A 2.5-fold serial dilution of each test compound ranging from 20 μM to 5.2 nM was assayed for binding to HSP90α. After the final step of adding HSP90α protein to each assay well, plates were mixed by brief shaking, incubated at 25° C. for 120 min for FITC-geldanamycin or 300 min for RNK04010, and fluorescence was measured using a PerkinElmer EnVision Plate Reader.

[2] = system: MV-4-11 human acute myeloid leukemia; experiment: MV-4-11 CCK-8 proliferation assay; assay type: cell-based; conditions: Homo sapiens, MV4-11; MV-4-11 cells, 72 hr
In short: as §1

MAPK7 = MAPK7 (Homo sapiens, UniProt Q13164); experiment: MAPK7 Western blot protein degradation assay in U-87 MG cells; assay type: cell-based; parameters: U-87 MG human glioblastoma cells, which express MAPK7; endogenous in cells; host or cells: U-87 MG; conditions: 48 hr
Protocol: U-87 MG human glioblastoma cells were seeded in 6- or 12-well tissue culture plates, and after 1 hr, test compounds were added at various concentrations and incubated at 37° C./5% CO2 for 48 hr. Cells were then washed with cold PBS, aspirated and cold RIPA buffer containing a protease/phosphatase inhibitor cocktail was added to lyse cells. After centrifugation, the total protein concentrations of cell lysates were determined using the BCA protein assay. Samples were normalized for equivalent protein concentrations, 5×SDS-PAGE loading buffer added and denatured at 100° C. for 10 min. 20 μl of each sample/well was loaded on a SDS-PAGE gel and electrophoresed for 20 min at 80 V, then 120 V for 1.5 hr. Gels were then electroblotted to nitrocellulose membranes using a wet-transfer method at 250 mA for 2.5 hr. Membranes were incubated with blocking buffer for 1 hr and washed 3 times with TBST for 5 min. Membranes were then incubated with anti-MAPK7 (anti-ERK5; Cell Signaling Technology, #12950) and anti-3-Actin (Cell Signaling Technology, #3700) monoclonal antibodies diluted in blocking buffer at 4° C. overnight per the manufacturer's recommendations. After washing 3 times, blots were incubated with appropriately labeled secondary antibodies for 1 hr at room temperature and washed again. Fluorescence imaging and quantitation was performed using a LI-COR Odyssey. Results was analyzed using GraphPad Prism 7 software.

MAPK7, sequence (Q13164 whole entry): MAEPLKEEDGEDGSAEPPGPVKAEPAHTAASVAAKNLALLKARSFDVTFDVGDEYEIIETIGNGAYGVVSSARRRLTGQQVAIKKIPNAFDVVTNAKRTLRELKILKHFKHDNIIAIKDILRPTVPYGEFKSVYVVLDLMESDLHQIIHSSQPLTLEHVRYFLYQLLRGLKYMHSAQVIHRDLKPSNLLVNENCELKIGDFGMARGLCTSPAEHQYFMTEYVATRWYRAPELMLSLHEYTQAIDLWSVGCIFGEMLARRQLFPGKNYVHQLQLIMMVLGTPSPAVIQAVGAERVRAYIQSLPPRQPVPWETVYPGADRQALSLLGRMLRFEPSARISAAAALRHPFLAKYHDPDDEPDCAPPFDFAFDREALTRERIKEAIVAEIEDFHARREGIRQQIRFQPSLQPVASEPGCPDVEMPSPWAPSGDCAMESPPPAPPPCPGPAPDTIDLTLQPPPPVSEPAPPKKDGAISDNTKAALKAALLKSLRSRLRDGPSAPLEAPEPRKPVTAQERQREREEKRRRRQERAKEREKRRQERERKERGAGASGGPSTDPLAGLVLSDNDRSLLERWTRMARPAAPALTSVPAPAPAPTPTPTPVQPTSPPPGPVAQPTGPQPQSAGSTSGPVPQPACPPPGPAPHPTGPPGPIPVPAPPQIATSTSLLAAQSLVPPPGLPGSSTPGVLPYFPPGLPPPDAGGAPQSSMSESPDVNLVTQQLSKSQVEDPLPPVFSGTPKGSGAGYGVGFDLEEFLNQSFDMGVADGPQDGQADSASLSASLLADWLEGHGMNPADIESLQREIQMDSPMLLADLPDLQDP

Row | Structure (SMILES) | ERBB2 degradation (ERBB2) | EC50 [1] [nM] | IC50 (HSP90α protein) [nM] | EC50 [2] [nM] | MAPK7 degradation (30 nM) (MAPK7; 30 nM) | MAPK7 degradation (100 nM) (MAPK7; 100 nM) | MAPK7 degradation (1000 nM) (MAPK7; 1000 nM)
1 | CCOc1cc(N2CCC(OCC(=O)N3CCN(Cc4ccc(-n5c(O)nnc5-c5cc(C(C)C)c(O)cc5O)cc4)CC3)CC2)ccc1Nc1ncc2c(n1)N(C)c1ccccc1C(=O)N2C [Compound 001, 2-((4-(4-(2-(4-(4-(3-(2,4-dihydroxy-5-isopropylphenyl)-5-hydroxy-4H-1,2,4-triazol-4-yl)benzyl)piperazin-1-yl)-2-oxoethoxy)piperidin-1-yl)-2-ethoxyphenyl)amino)-5,11-dimethyl-5H-benzo[e]pyrimido[5,4-b][1,4]diazepin-6(11H)-one] | C (DC50 > 1000 nM) | > 1000 | < 100 | 100 to 1000 |  |  | 
2 | CCOc1cc(N2CCC(OCC(=O)NCCOCCN3CCN(Cc4ccc(-n5c(O)nnc5-c5cc(C(C)C)c(O)cc5O)cc4)CC3)CC2)ccc1Nc1ncc2c(n1)N(C)c1ccccc1C(=O)N2C [Compound 002, N-(2-(2-(4-(4-(3-(2,4-dihydroxy-5-isopropylphenyl)-5-hydroxy-4H-1,2,4-triazol-4-yl)benzyl)piperazin-1-yl)ethoxy)ethyl)-2-((1-(4-((5,11-dimethyl-6-oxo-6,11-dihydro-5H-benzo[e]pyrimido[5,4-b][1,4]diazepin-2-yl)amino)-3-ethoxyphenyl)piperidin-4-yl)oxy)acetamide] | B (DC50 = 100-1000 nM) | 100 to 1000 | < 100 | < 100 |  |  | 
3 | CCOc1cc(N2CCC(C(=O)NCCOCc3ccc(-n4c(O)nnc4-c4cc(C(C)C)c(O)cc4O)cc3)CC2)ccc1Nc1ncc2c(n1)N(C)c1ccccc1C(=O)N2C [Compound 005, N-(2-((4-(3-(2,4-dihydroxy-5-isopropylphenyl)-5-hydroxy-4H-1,2,4-triazol-4-yl)benzyl)oxy)ethyl)-1-(4-((5,11-dimethyl-6-oxo-6,11-dihydro-5H-benzo[e]pyrimido[5,4-b][1,4]diazepin-2-yl)amino)-3-ethoxyphenyl)piperidine-4-carboxamide] | B (DC50 = 100-1000 nM) | < 100 | 100 to 1000 | < 100 | C (< 33% degradation) | C (< 33% degradation) | A (>66% degradation)
4 | CCOc1cc(N2CCC(C(=O)NCCOc3cccc(CN(C)Cc4ccc(-n5c(O)nnc5-c5cc(C(C)C)c(O)cc5O)cc4)c3)CC2)ccc1Nc1ncc2c(n1)N(C)c1ccccc1C(=O)N2C [Compound 007, N-(2-(3-(((4-(3-(2,4-dihydroxy-5-isopropylphenyl)-5-hydroxy-4H-1,2,4-triazol-4-yl)benzyl)(methyl)amino)methyl)phenoxy)ethyl)-1-(4-((5,11-dimethyl-6-oxo-6,11-dihydro-5H-benzo[e]pyrimido[5,4-b][1,4]diazepin-2-yl)amino)-3-ethoxyphenyl)piperidine-4-carboxamide] | B (DC50 = 100-1000 nM) | 100 to 1000 | 100 to 1000 | < 100 |  |  | 
5 | CCOc1cc(N2CCC(C(=O)N3CCC(CN4CCN(C(=O)c5ccc(-n6c(O)nnc6-c6cc(C(C)C)c(O)cc6O)cc5)CC4)CC3)CC2)ccc1Nc1ncc2c(n1)N(C)c1ccccc1C(=O)N2C [Compound 126, 2-((4-(4-(4-((4-(4-(3-(2,4-dihydroxy-5-isopropylphenyl)-5-hydroxy-4H-1,2,4-triazol-4-yl)benzoyl)piperazin-1-yl)methyl)piperidine-1-carbonyl)piperidin-1-yl)-2-ethoxyphenyl)amino)-5,11-dimethyl-5,11-dihydro-6H-benzo[e]pyrimido[5,4-b][1,4]diazepin-6-one] |  | 100 to 1000 | 100 to 1000 | < 100 |  |  | 
6 | CCOc1cc(N2CCC(C(=O)N3CCC(CN4CCN(C(=O)c5ccc(-n6c(O)nnc6-c6cc(C(C)C)c(O)cc6O)cc5)CC4)CC3)CC2)ccc1Nc1ncc2c(n1)N(S(C)(=O)=O)c1ccccc1C(=O)N2C [Compound 127, 2-((4-(4-(4-((4-(4-(3-(2,4-dihydroxy-5-isopropylphenyl)-5-hydroxy-4H-1,2,4-triazol-4-yl)benzoyl)piperazin-1-yl)methyl)piperidine-1-carbonyl)piperidin-1-yl)-2-ethoxyphenyl)amino)-5-methyl-11-(methylsulfonyl)-5,11-dihydro-6H-benzo[e]pyrimido[5,4-b][1,4]diazepin-6-one] |  | 100 to 1000 | 100 to 1000 | 100 to 1000 |  |  | 
7 | CCOc1cc(N2CCC(C(=O)N3CCC(CN4CCC(COc5ccc(Nc6cc(-n7nc(C(F)(F)F)c8c7CC(C)(C)CC8=O)ccc6C(N)=O)cc5)CC4)CC3)CC2)ccc1Nc1ncc2c(n1)N(C)c1ccccc1C(=O)N2C [Compound 129, 4-(6,6-dimethyl-4-oxo-3-(trifluoromethyl)-4,5,6,7-tetrahydro-1H-indazol-1-yl)-2-((4-((1-((1-(1-(4-((5,11-dimethyl-6-oxo-6,11-dihydro-5H-benzo[e]pyrimido[5,4-b][1,4]diazepin-2-yl)amino)-3-ethoxyphenyl)piperidine-4-carbonyl)piperidin-4-yl)methyl)piperidin-4-yl)methoxy)phenyl)amino)benzamide] |  | > 1000 | 100 to 1000 | 100 to 1000 |  |  | 
8 | CCOc1cc(N2CCC(C(=O)N3CCC(CN4CCN(CCOc5ccc(Nc6cc(-n7nc(C(F)(F)F)c8c7CC(C)(C)CC8=O)ccc6C(N)=O)cc5)CC4)CC3)CC2)ccc1Nc1ncc2c(n1)N(C)c1ccccc1C(=O)N2C [Compound 130, 4-(6,6-dimethyl-4-oxo-3-(trifluoromethyl)-4,5,6,7-tetrahydro-1H-indazol-1-yl)-2-((4-(2-(4-((1-(1-(4-((5,11-dimethyl-6-oxo-6,11-dihydro-5H-benzo[e]pyrimido[5,4-b][1,4]diazepin-2-yl)amino)-3-ethoxyphenyl)piperidine-4-carbonyl)piperidin-4-yl)methyl)piperazin-1-yl)ethoxy)phenyl)amino)benzamide] |  | > 1000 | > 1000 | 100 to 1000 |  |  | 
9 | CCOc1cc(N2CCC(C(=O)NCCOCCOCCOCCOc3ccc(Nc4cc(-n5nc(C(F)(F)F)c6c5CC(C)(C)CC6=O)ccc4C(N)=O)cc3)CC2)ccc1Nc1ncc2c(n1)N(C)c1ccccc1C(=O)N2C [Compound 132, N-(2-(2-(2-(2-(4-((2-carbamoyl-5-(6,6-dimethyl-4-oxo-3-(trifluoromethyl)-4,5,6,7-tetrahydro-1H-indazol-1-yl)phenyl)amino)phenoxy)ethoxy)ethoxy)ethoxy)ethyl)-1-(4-((5,11-dimethyl-6-oxo-6,11-dihydro-5H-benzo[e]pyrimido[5,4-b][1,4]diazepin-2-yl)amino)-3-ethoxyphenyl)piperidine-4-carboxamide] |  | > 1000 | > 1000 | 100 to 1000 |  |  | 
